{"source": "patent US7723091B2", "about": "(priority 1999, dated 2010)", "key": {"[1]": {"system": "Cryptosporidium", "experiment": "SCID mouse model of Cryptosporidium infection", "details": "for Parasite load (SD) Day 21 / Parasite load (SD) Day 28 / Parasite load (SD) Day 31 / Percent Inhibition Day 21 / Percent Inhibition Day 28 / Percent Inhibition Day 31: feces"}, "[2]": {"system": "E. acervulina, E. maxima, and C. perfringens", "assay_type": "in vivo, broiler chickens", "details": "Trial III; for Feed Consumption Day 0-21 / Feed Consumption Day 8-21 / Feed Conversion Day 0-21 / Feed Conversion Day 8-21 / Lesion Scores E. acer. / Lesion Scores E. max. / Live Wt. Day 21 / Weight AF/G Treatment (weight adjusted feed conversion) / Weight Gain Day 0-21 / Weight Gain Day 8-21: infected"}, "[3]": {"system": "Eimeria tenella sporozoites", "experiment": "In vitro invasion of BHK cells by Eimeria tenella sporozoites", "assay_type": "cell-based", "experimental": "Eineria acervulina sporozoites or Eimeria tenella sporozoites and cultured baby hamster kidney (BHK) cells were prepared by published methods. See Augustine, Avian and Poultry Biology Reviews 1:113-122, 2000. For cell pretreatment, cell cultures were overlaid with dilutions of enzymes as described in Table 11, and examined for morphological changes from 5 to 45 min post overlay. After 45 minutes, the monolayer cultures were washed twice, then inoculated with untreated E. acervulina or E. tenella sporozoites. For application during infection, sporozoites were suspended in the appropriate dilution of the enzyme and inoculated immediately into the cell cultures. After 45 minutes incubation, cultures were fixed, stained, and the invasion was quantified.\nObservations were made looking for changes in gross morphology of sporozoites or cells due to enzyme treatment. At the enzyme levels used in these experiments, no morphological change was noted. The sporozoite invasion of the cultured cells was measured after the two methods of enzyme treatment, as well as without enzyme treatment, by histological staining and microscopy procedures. See Augustine, supra."}, "[4]": {"details": "Group A, 90 U/lb in feed, Day 3"}, "[5]": {"details": "Group A, 90 U/lb in feed, Day 7"}, "[6]": {"details": "Group A, 90 U/lb in feed, Day 10"}, "[7]": {"details": "Group A, 90 U/lb in feed, Day 14"}, "[8]": {"details": "Group A, 90 U/lb in feed, Day 17"}, "[9]": {"details": "Group A, 90 U/lb in feed, Day 21"}, "[10]": {"details": "Group A, 90 U/lb in feed, Day 24"}, "[11]": {"details": "Group B, 30 U/lb in feed, Day 3"}, "[12]": {"details": "Group B, 30 U/lb in feed, Day 7"}, "[13]": {"details": "Group B, 30 U/lb in feed, Day 10"}, "[14]": {"details": "Group B, 30 U/lb in feed, Day 14"}, "[15]": {"details": "Group B, 30 U/lb in feed, Day 17"}, "[16]": {"details": "Group B, 30 U/lb in feed, Day 21"}, "[17]": {"details": "Group B, 30 U/lb in feed, Day 24"}, "[18]": {"details": "PI-PLC 10 U/lb (T5; T7 with mannanase 100 MU/ton)"}, "[19]": {"details": "PI-PLC 30 U/lb (T6; T8 with mannanase 100 MU/ton; T10 with medication)"}}, "note": "Where two headings read alike, the source gives them in different places. Marks after values point to notes of the source that are not given here.", "data": [{"substance": "phosphatidylinositol specific phospholipase C [Recombinant PI-PLC]", "values": [{"measurement": "Feed (g) consumed/mouse/day AVG", "setting": "[1]; [4]", "value": 7.56, "unit": "g"}, {"measurement": "Weight (g) AVG", "setting": "[1]; [4]", "value": 16.67, "unit": "g"}, {"measurement": "Feed (g) consumed/mouse/day AVG", "setting": "[1]; [5]", "value": 8.31, "unit": "g"}, {"measurement": "Weight (g) AVG", "setting": "[1]; [5]", "value": 16.95, "unit": "g"}, {"measurement": "Feed (g) consumed/mouse/day AVG", "setting": "[1]; [6]", "value": 8.55, "unit": "g"}, {"measurement": "Weight (g) AVG", "setting": "[1]; [6]", "value": 17.29, "unit": "g"}, {"measurement": "Feed (g) consumed/mouse/day AVG", "setting": "[1]; [7]", "value": 7.78, "unit": "g"}, {"measurement": "Weight (g) AVG", "setting": "[1]; [7]", "value": 17.43, "unit": "g"}, {"measurement": "Feed (g) consumed/mouse/day AVG", "setting": "[1]; [8]", "value": 8.52, "unit": "g"}, {"measurement": "Weight (g) AVG", "setting": "[1]; [8]", "value": 17.64, "unit": "g"}, {"measurement": "Feed (g) consumed/mouse/day AVG", "setting": "[1]; [9]", "value": 7.89, "unit": "g"}, {"measurement": "Weight (g) AVG", "setting": "[1]; [9]", "value": 18.25, "unit": "g"}, {"measurement": "Feed (g) consumed/mouse/day AVG", "setting": "[1]; [10]", "value": 9.79, "unit": "g"}, {"measurement": "Weight (g) AVG", "setting": "[1]; [10]", "value": 18.2, "unit": "g"}, {"measurement": "Feed (g) consumed/mouse/day AVG", "setting": "[1]; [11]", "value": 6.13, "unit": "g"}, {"measurement": "Weight (g) AVG", "setting": "[1]; [11]", "value": 17.055, "unit": "g"}, {"measurement": "Feed (g) consumed/mouse/day AVG", "setting": "[1]; [12]", "value": 8.51, "unit": "g"}, {"measurement": "Weight (g) AVG", "setting": "[1]; [12]", "value": 16.91, "unit": "g"}, {"measurement": "Feed (g) consumed/mouse/day AVG", "setting": "[1]; [13]", "value": 7.93, "unit": "g"}, {"measurement": "Weight (g) AVG", "setting": "[1]; [13]", "value": 17.08, "unit": "g"}, {"measurement": "Feed (g) consumed/mouse/day AVG", "setting": "[1]; [14]", "value": 8.06, "unit": "g"}, {"measurement": "Weight (g) AVG", "setting": "[1]; [14]", "value": 17.62, "unit": "g"}, {"measurement": "Feed (g) consumed/mouse/day AVG", "setting": "[1]; [15]", "value": 8.53, "unit": "g"}, {"measurement": "Weight (g) AVG", "setting": "[1]; [15]", "value": 17.84, "unit": "g"}, {"measurement": "Feed (g) consumed/mouse/day AVG", "setting": "[1]; [16]", "value": 8.22, "unit": "g"}, {"measurement": "Weight (g) AVG", "setting": "[1]; [16]", "value": 18.62, "unit": "g"}, {"measurement": "Feed (g) consumed/mouse/day AVG", "setting": "[1]; [17]", "value": 8.3, "unit": "g"}, {"measurement": "Weight (g) AVG", "setting": "[1]; [17]", "value": 18.63, "unit": "g"}, {"measurement": "reduction in parasite load in the treated groups", "setting": "[1]; feces at 3, 4 and 4.5 weeks post-infection, 30 or 90 U/lb", "value": "34-54%"}, {"measurement": "Parasite load (SD) Day 21", "setting": "[1]; 30 U/lb in feed", "value": "16.2 (4.7) oocysts/100 μl"}, {"measurement": "Parasite load (SD) Day 28", "setting": "[1]; 30 U/lb in feed", "value": "23.4 (11)* oocysts/100 μl"}, {"measurement": "Parasite load (SD) Day 31", "setting": "[1]; 30 U/lb in feed", "value": "74.3 (89.7)^+ oocysts/100 μl"}, {"measurement": "Percent Inhibition Day 21", "setting": "[1]; 30 U/lb in feed", "value": 52.0, "unit": "%"}, {"measurement": "Percent Inhibition Day 28", "setting": "[1]; 30 U/lb in feed", "value": 54.6, "unit": "%"}, {"measurement": "Percent Inhibition Day 31", "setting": "[1]; 30 U/lb in feed", "value": 40.0, "unit": "%"}, {"measurement": "Parasite load (SD) Day 21", "setting": "[1]; 90 U/lb in feed", "value": "22.7 (11.4) oocysts/100 μl"}, {"measurement": "Parasite load (SD) Day 28", "setting": "[1]; 90 U/lb in feed", "value": "26.3 (14)* oocysts/100 μl"}, {"measurement": "Parasite load (SD) Day 31", "setting": "[1]; 90 U/lb in feed", "value": "87.5 (52.9) oocysts/100 μl"}, {"measurement": "Percent Inhibition Day 21", "setting": "[1]; 90 U/lb in feed", "value": 44.0, "unit": "%"}, {"measurement": "Percent Inhibition Day 28", "setting": "[1]; 90 U/lb in feed", "value": 48.9, "unit": "%"}, {"measurement": "Percent Inhibition Day 31", "setting": "[1]; 90 U/lb in feed", "value": 34.0, "unit": "%"}, {"measurement": "improvement in AF/G worsening present in the infected control (T3 v. T1)", "setting": "[2]; infected birds, mannanase 100 MU per ton, PI-PLC in the feed", "value": "33-41%"}, {"measurement": "Feed Consumption Day 0-21", "setting": "[2]; [18]", "value": "10.456^cd"}, {"measurement": "Feed Consumption Day 8-21", "setting": "[2]; [18]", "value": "8.228^abc"}, {"measurement": "Feed Conversion Day 0-21", "setting": "[2]; [18]", "value": "1.560^bc"}, {"measurement": "Feed Conversion Day 8-21", "setting": "[2]; [18]", "value": 1.591, "unit": "b^c"}, {"measurement": "Lesion Scores E. acer.", "setting": "[2]; [18]", "value": "1.34^a"}, {"measurement": "Lesion Scores E. max.", "setting": "[2]; [18]", "value": "1.19^bc"}, {"measurement": "Live Wt. Day 21", "setting": "[2]; [18]", "value": "0.635^c"}, {"measurement": "Weight AF/G Treatment (weight adjusted feed conversion)", "setting": "[2]; [18]", "value": 1.512}, {"measurement": "Weight Gain Day 0-21", "setting": "[2]; [18]", "value": "0.594^c"}, {"measurement": "Weight Gain Day 8-21", "setting": "[2]; [18]", "value": "0.477^b"}, {"measurement": "Feed Consumption Day 0-21", "setting": "[2]; [19]", "value": "10.266^d"}, {"measurement": "Feed Consumption Day 8-21", "setting": "[2]; [19]", "value": "7.982^c"}, {"measurement": "Feed Conversion Day 0-21", "setting": "[2]; [19]", "value": "1.572^b"}, {"measurement": "Feed Conversion Day 8-21", "setting": "[2]; [19]", "value": "1.621^ab"}, {"measurement": "Lesion Scores E. acer.", "setting": "[2]; [19]", "value": "1.16^ab"}, {"measurement": "Lesion Scores E. max.", "setting": "[2]; [19]", "value": "1.13^cd"}, {"measurement": "Live Wt. Day 21", "setting": "[2]; [19]", "value": "0.638^c"}, {"measurement": "Weight AF/G Treatment (weight adjusted feed conversion)", "setting": "[2]; [19]", "value": 1.526}, {"measurement": "Weight Gain Day 0-21", "setting": "[2]; [19]", "value": "0.597^c"}, {"measurement": "Weight Gain Day 8-21", "setting": "[2]; [19]", "value": "0.483^b"}, {"measurement": "Invasion counts (mean ± standard error of the mean)", "setting": "[3]; Application of Enzyme During Infection, Test 1, B. cereus PI-PLC 0.0403 U/mL, recombinant 0.261 U/mL, mannanase 5100 U/mL, listed as PI-PLC from Recombinant B. megateriaum", "value": "28 ± 2^b"}, {"measurement": "Invasion counts (mean ± standard error of the mean)", "setting": "[3]; Application of Enzyme During Infection, Test 1, recombinant PI-PLC 0.0261 U/mL", "value": "18 ± 1^c"}, {"measurement": "Invasion counts (mean ± standard error of the mean)", "setting": "[3]; Application of Enzyme During Infection, Test 2, B. cereus PI-PLC 0.0403 U/mL, recombinant 0.261 U/mL, listed as PI-PLC from Recombinant B. megateriaum", "value": "39 ± 4^ab"}, {"measurement": "Invasion counts (mean ± standard error of the mean)", "setting": "[3]; Application of Enzyme During Infection, Test 2, recombinant PI-PLC 0.0261 U/mL", "value": "29 ± 1^b"}, {"measurement": "Invasion counts (mean ± standard error of the mean)", "setting": "[3]; Cell Pretreatment with Enzyme Followed by Wash, Test 1, B. cereus PI-PLC 0.0403 U/mL, recombinant 0.261 U/mL, mannanase 5100 U/mL, listed as PI-PLC from Recombinant B. megateriaum", "value": "30 ± 1^c"}, {"measurement": "Invasion counts (mean ± standard error of the mean)", "setting": "[3]; Cell Pretreatment with Enzyme Followed by Wash, Test 2, B. cereus PI-PLC 0.0403 U/mL, recombinant 0.261 U/mL, mannanase 5100 U/mL, listed as PI-PLC from Recombinant B. megateriaum", "value": "15 ± 0^a"}, {"measurement": "Invasion counts (mean ± standard error of the mean)", "setting": "[3]; Cell Pretreatment with Enzyme Followed by Wash, Test 2, recombinant PI-PLC 0.0261 U/mL", "value": "17 ± 1^a"}]}]}
